From PubChem BioAssay (NCI)
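Assay format: 96-well plates, 48-hour exposure. At the GI50, growth is halved. At the TGI there is no net growth.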

Experiments:
Assay in all cases: NCI-60 cell line screen, 48 h
[1] = system: ACHN renal
[2] = system: HCT-116 colon
[3] = system: HT29 colon
[4] = system: K-562 leukemia
[5] = system: MALME-3M melanoma
[6] = system: NCI-H522 lung
[7] = system: SK-MEL-2 melanoma
[8] = system: SK-MEL-28 melanoma
[9] = system: SK-OV-3 ovarian
[10] = system: SW-620 colon

Structure (SMILES) | GI50 [1] [µM] | TGI [1] [µM] | GI50 [2] [µM] | TGI [2] [µM] | GI50 [3] [µM] | TGI [3] [µM] | GI50 [4] [µM] | TGI [4] [µM] | GI50 [5] [µM] | TGI [5] [µM] | GI50 [6] [µM] | TGI [6] [µM] | GI50 [7] [µM] | TGI [7] [µM] | GI50 [8] [µM] | TGI [8] [µM] | GI50 [9] [µM] | TGI [9] [µM] | GI50 [10] [µM] | TGI [10] [µM]
CC(=O)N[C@H](C(=O)N[C@@H](CCCNC(=N)N)C(=O)N[C@@H](CCCCN)C(=O)N[C@@H](CCCNC(=N)N)C(=O)N[C@]1(C)CCCCCC/C=C\CCC[C@@](C)(C(=O)N[C@@H](CCCNC(=N)N)C(=O)N[C@@H](CCC(=O)O)C(=O)N[C@@H](CC(C)C)C(=O)N[C@H](C(=O)N[C@@H](CCC(=O)O)C(N)=O)C(C)C)NC(=O)[C@H](CCC(N)=O)NC(=O)[C@H](CC(C)C)NC(=O)[C@H](CC(C)C)NC(=O)[C@H](CCCNC(=N)N)NC(=O)[C@H](CCCNC(=N)N)NC(=O)[C@H](CC(C)C)NC1=O)C(C)C | 8.06 | 28.1 | 12 | 37.6 | 7.91 | 41.3 | 5.42 | 21.6 | 1.19 | 2.72 | 2.66 | > 50 | 7.59 | > 50 | 2.64 | 21.7 | 3.72 | 27.7 | 7.84 | 20.2
CCC(=C(c1ccc(OCCCN(C)C)cc1)c1ccc(OCCCN(C)C)cc1)c1ccc(Cl)cc1 | 0.469 | 1.36 | 0.447 | 1.15 | 0.395 | 0.966 | 0.324 | 0.78 | 0.36 | 0.973 | 0.48 | 1.69 | 2.63 | 5.37 | 0.324 | 0.652 | 2.81 | 5.36 | 0.314 | 0.648
Cc1ccc(S(=O)(=O)N/N=C(\c2nc3ccc([N+](=O)[O-])cc3[nH]c2=O)C(O)c2ccccc2Cl)cc1 (stereo unspecified) | – | > 100 | – | > 100 | – | > 100 | – | > 100 | – | > 100 | – | 82.6 | – | > 100 | – | > 100 | – | > 100 | – | > 100
O=C1C2=C(c3ccccc31)C(c1ccccc1Cl)N1C(=O)CCSC1=N2 (stereo unspecified) | – | > 100 | – | > 100 | – | > 100 | – | > 100 | – | > 100 | – | > 100 | – | > 100 | – | > 100 | – | > 100 | – | > 100
Cc1ccc2nc3c(Cl)c(C)c(=O)cc-3sc2c1 | 39.7 | > 100 | 39.6 | > 100 | > 100 | > 100 | – | > 100 | 73.8 | > 100 | – | > 100 | 51.1 | > 100 | > 100 | > 100 | > 100 | > 100 | – | > 100
CCOC(=O)c1ccc(N[C@@H]2c3cc4c(cc3C(C3=CC(=O)C(=O)C(OC)=C3)[C@H]3C(=O)OCC32)OCO4)cc1 (stereo partly specified) | – | 3.86 | – | 18.7 | – | 18.2 | – | > 69.4 | – | 11.2 | – | 18.8 | – | 6.08 | – | 40.5 | – | 6.77 | – | 20.1
Cn1c([N+](=O)[O-])cnc1/C=C1\Oc2cc(Cl)ccc2C1=O | 0.209 | – | 0.201 | 0.806 | 0.203 | 0.657 | 1.36 | 21 | 0.837 | 4.13 | 0.679 | 2.36 | 0.436 | 2 | 0.721 | 3.82 | 1.94 | > 22.8 | 0.159 | 1.06
